Patent publication US20250304620A1, “ANTIMICROBIAL PEPTIDE AND APPLICATION THEREOF” (priority 2023, published 2025)
In brackets after ≈: the same amount, converted by molar mass. Marks after values point to notes of the source that are not given here. Non-standard residues stand in square brackets, D forms with d. Residues, ends and D or L forms follow the SMILES beside them. dPhe(3,4-Cl2) = N[C@H](Cc1ccc(Cl)c(Cl)c1)C(=O)O; dPhe(4-CF3) = N[C@H](Cc1ccc(C(F)(F)F)cc1)C(=O)O; dPhe(4-Br) = N[C@H](Cc1ccc(Br)cc1)C(=O)O; dPhe(4-Me) = Cc1ccc(C[C@@H](N)C(=O)O)cc1

Tests used:
[1] = test system: Bacillus subtilis ATCC 6633; assay type: cell-based
How it was run: (§1)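 CLSI microdilution, serial 2-fold dilutions; MIC read-out; n = 5 parallel repeats.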

[2] = test system: Candida albicans ATCC MYA-2876; assay type: cell-based
How it was run: as §1

[3] = test system: Candida glabrata ATCC 15126; assay type: cell-based
How it was run: as §1

Candida krusei ATCC 6258 = assay type: cell-based
How it was run: as §1

Candida utilis ATCC 9950 = assay type: cell-based
How it was run: as §1

[4] = test system: Corynebacterium ATCC 7715; assay type: cell-based
How it was run: as §1

[5] = test system: Klebsiella pneumoniae ATCC 700603; assay type: cell-based
How it was run: as §1

[6] = test system: Pseudomonas aeruginosa ATCC 27853; assay type: cell-based
How it was run: as §1

[7] = test system: Salmonella typhimurium ATCC 14028; assay type: cell-based
How it was run: as §1

[8] = test system: Serratia marcescens ATCC 29021; assay type: cell-based
How it was run: as §1

[9] = test system: Staphylococcus aureus ATCC 25923; assay type: cell-based
How it was run: as §1

[10] = test system: Shigella flexneri ATCC 12022; assay: MIC against clinically common bacterial strain; assay type: cell-based
How it was run: as §1

[11] = test system: Methicillin-resistant Staphylococcus aureus (MRSA); assay type: cell-based; settings: Methicillin-resistant
How it was run: (§2)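 Antimicrobial peptide susceptibility is measured against clinically isolated resistant bacteria using the CLSI microdilution method.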

[12] = test system: carbapenem-resistant Escherichia coli (CREC); assay type: cell-based; settings: carbapenem-resistant (CREC)
How it was run: as §2

[13] = test system: carbapenem-resistant Klebsiella pneumoniae (CRKP); assay type: cell-based; settings: carbapenem-resistant (CRKP)
How it was run: as §2

[14] = test system: carbapenem-resistant Pseudomonas aeruginosa (CRPA); assay type: cell-based; settings: carbapenem-resistant (CRPA)
How it was run: as §2

[15] = test system: vancomycin-resistant Enterococcus (VRE); assay type: cell-based
How it was run: as §2

rabbit red blood cells = assay type: cell-based; settings: red cells of rabbit, 1 h
[16] = test system: Pseudomonas aeruginosa ATCC 27853; assay: Injectable formulations on mice infected with peritonitis; assay type: in vivo, ICR mice; settings: 1 mg/kg via tail vein, twice a day for 3 days, n = 10; for Average survival times (Days): observed for 14 d
How it was run: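 ICR mice of both sexes (10 per group) infected intraperitoneally with 0.2 mL P. aeruginosa ATCC 27853 at 1×10^9 CFU/mL. Injectable formulations dosed by body weight via tail vein twice daily for 3 days; deaths and survival time recorded over 14 d.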

[17] = Serum stability assay (residual level by RP-HPLC); settings: human

Row | SMILES | MIC Bacillus subtilis ATCC 6633 [1] | MIC Candida albicans ATCC MYA-2876 [2] | MIC Candida glabrata ATCC 15126 [3] | MIC Candida krusei ATCC 6258 (Candida krusei ATCC 6258) | MIC Candida utilis ATCC 9950 (Candida utilis ATCC 9950) | MIC Corynebacterium ATCC 7715 [4] | MIC Klebsiella pneumoniae ATCC 700603 [5] | MIC Pseudomonas aeruginosa ATCC 27853 [6] | MIC Salmonella typhimurium ATCC 14028 [7] | MIC Serratia marcescens ATCC 29021 [8] | MIC Staphylococcus aureus ATCC 25923 [9] | MIC Shigella flexneri ATCC 12022 [10] | MIC MRSA [11] | MIC CREC [12] | MIC CRKP [13] | MIC CRPA [14] | MIC VRE [15] | MHC (minimum hemolytic concentration, lowest concentration causing 10% hemolysis) (rabbit red blood cells) | Number of mice that died on each day after infection: day 1 [16] | Number of mice that died on each day after infection: day 2 [16] | also measured
1 | CC(=O)N[C@H](CCCNC(=N)N)C(=O)N[C@H](CCCCN)C(=O)N[C@H](CC(C)C)C(=O)N[C@H](CC(C)C)C(=O)N[C@H](Cc1ccc(Cl)c(Cl)c1)C(=O)N[C@H](CCCCN)C(=O)N[C@H](CC(C)C)C(=O)N[C@H](CCCCN)C(=O)N[C@H](Cc1ccc(Cl)c(Cl)c1)C(=O)N[C@H](CCCCN)C(=O)N[C@H](CCCNC(=N)N)C(N)=O [LV-8] (Ac-[dR][dK][dL][dL][dPhe(3,4-Cl2)][dK][dL][dK][dPhe(3,4-Cl2)][dK][dR]-NH2) | 2 µg/mL (≈ 1.21 µM) | 16 µg/mL (≈ 9.66 µM) | 16 µg/mL (≈ 9.66 µM) | 16 µg/mL (≈ 9.66 µM) | 8 µg/mL (≈ 4.83 µM) | 2 µg/mL (≈ 1.21 µM) | 4 µg/mL (≈ 2.42 µM) | 2 µg/mL (≈ 1.21 µM) | 2 µg/mL (≈ 1.21 µM) | 2 µg/mL (≈ 1.21 µM) | 1 µg/mL (≈ 0.604 µM) | 4 µg/mL (≈ 2.42 µM) | 4 µg/mL (≈ 2.42 µM) | 4 µg/mL (≈ 2.42 µM) | 2 µg/mL (≈ 1.21 µM) | 8 µg/mL (≈ 4.83 µM) | 8 µg/mL (≈ 4.83 µM) | >1000 µg/mL | 1 Mouse | 1 Mouse | Number of mice that died on each day after infection: day 3 [16]: 0 Mouse; Number of mice that died on each day after infection: day 4 [16]: 1 Mouse; Number of mice that died on each day after infection: day 5 [16]: 1 Mouse; Average survival times (Days) [16]: 9.6*** Days; remaining at 12 h, 0.91 mg/mL [17]: 97.6%
2 | CC(=O)N[C@H](CCCNC(=N)N)C(=O)N[C@H](CCCCN)C(=O)N[C@H](CC(C)C)C(=O)N[C@H](CC(C)C)C(=O)N[C@H](Cc1ccc(C(F)(F)F)cc1)C(=O)N[C@H](CCCCN)C(=O)N[C@H](CC(C)C)C(=O)N[C@H](CCCCN)C(=O)N[C@H](Cc1ccc(C(F)(F)F)cc1)C(=O)N[C@H](CCCCN)C(=O)N[C@H](CCCNC(=N)N)C(N)=O [LV-9] (Ac-[dR][dK][dL][dL][dPhe(4-CF3)][dK][dL][dK][dPhe(4-CF3)][dK][dR]-NH2) | 8 µg/mL (≈ 4.84 µM) | 8 µg/mL (≈ 4.84 µM) | 8 µg/mL (≈ 4.84 µM) | 16 µg/mL (≈ 9.67 µM) | 16 µg/mL (≈ 9.67 µM) | 2 µg/mL (≈ 1.21 µM) | 2 µg/mL (≈ 1.21 µM) | 2 µg/mL (≈ 1.21 µM) | 2 µg/mL (≈ 1.21 µM) | 4 µg/mL (≈ 2.42 µM) | 2 µg/mL (≈ 1.21 µM) | 2 µg/mL (≈ 1.21 µM) | 2 µg/mL (≈ 1.21 µM) | 2 µg/mL (≈ 1.21 µM) | 8 µg/mL (≈ 4.84 µM) | 4 µg/mL (≈ 2.42 µM) | 4 µg/mL (≈ 2.42 µM) | >1000 µg/mL | 1 Mouse | 2 Mouse | Number of mice that died on each day after infection: day 3 [16]: 0 Mouse; Number of mice that died on each day after infection: day 4 [16]: 1 Mouse; Number of mice that died on each day after infection: day 5 [16]: 0 Mouse; Average survival times (Days) [16]: 9.3*** Days; remaining at 12 h, 0.91 mg/mL [17]: 97.3%
3 | CC(=O)N[C@H](CCCCN)C(=O)N[C@H](CCCCN)C(=O)N[C@H](CC(C)C)C(=O)N[C@H](CC(C)C)C(=O)N[C@H](Cc1ccc(Br)cc1)C(=O)N[C@H](CCCNC(=N)N)C(=O)N[C@H](CC(C)C)C(=O)N[C@H](CCCCN)C(=O)N[C@H](Cc1ccc(Br)cc1)C(=O)N[C@H](CCCNC(=N)N)C(=O)N[C@H](CCCCN)C(N)=O [LV-10] (Ac-[dK][dK][dL][dL][dPhe(4-Br)][dR][dL][dK][dPhe(4-Br)][dR][dK]-NH2) | 2 µg/mL (≈ 1.19 µM) | 8 µg/mL (≈ 4.77 µM) | 8 µg/mL (≈ 4.77 µM) | 8 µg/mL (≈ 4.77 µM) | 8 µg/mL (≈ 4.77 µM) | 8 µg/mL (≈ 4.77 µM) | 2 µg/mL (≈ 1.19 µM) | 2 µg/mL (≈ 1.19 µM) | 2 µg/mL (≈ 1.19 µM) | 4 µg/mL (≈ 2.39 µM) | 2 µg/mL (≈ 1.19 µM) | 2 µg/mL (≈ 1.19 µM) | 4 µg/mL (≈ 2.39 µM) | 4 µg/mL (≈ 2.39 µM) | 2 µg/mL (≈ 1.19 µM) | 2 µg/mL (≈ 1.19 µM) | 8 µg/mL (≈ 4.77 µM) | >1000 µg/mL | 0 Mouse | 1 Mouse | Number of mice that died on each day after infection: day 3 [16]: 1 Mouse; Number of mice that died on each day after infection: day 4 [16]: 2 Mouse; Number of mice that died on each day after infection: day 5 [16]: 0 Mouse; Average survival times (Days) [16]: 9.7*** Days; remaining at 12 h, 0.91 mg/mL [17]: 98%
4 | CC(=O)N[C@H](CCCNC(=N)N)C(=O)N[C@H](CCCCN)C(=O)N[C@H](CC(C)C)C(=O)N[C@H](CC(C)C)C(=O)N[C@H](Cc1ccc(C)cc1)C(=O)N[C@H](CCCCN)C(=O)N[C@H](CC(C)C)C(=O)N[C@H](CCCCN)C(=O)N[C@H](Cc1ccc(C)cc1)C(=O)N[C@H](CCCCN)C(=O)N[C@H](CCCNC(=N)N)C(N)=O [LV-11] (Ac-[dR][dK][dL][dL][dPhe(4-Me)][dK][dL][dK][dPhe(4-Me)][dK][dR]-NH2) | 4 µg/mL (≈ 2.59 µM) | 8 µg/mL (≈ 5.17 µM) | 16 µg/mL (≈ 10.3 µM) | 16 µg/mL (≈ 10.3 µM) | 8 µg/mL (≈ 5.17 µM) | 8 µg/mL (≈ 5.17 µM) | 4 µg/mL (≈ 2.59 µM) | 2 µg/mL (≈ 1.29 µM) | 2 µg/mL (≈ 1.29 µM) | 8 µg/mL (≈ 5.17 µM) | 1 µg/mL (≈ 0.647 µM) | 4 µg/mL (≈ 2.59 µM) | 2 µg/mL (≈ 1.29 µM) | 2 µg/mL (≈ 1.29 µM) | 8 µg/mL (≈ 5.17 µM) | 4 µg/mL (≈ 2.59 µM) | 4 µg/mL (≈ 2.59 µM) | >1000 µg/mL | 0 Mouse | 1 Mouse | Number of mice that died on each day after infection: day 3 [16]: 1 Mouse; Number of mice that died on each day after infection: day 4 [16]: 0 Mouse; Number of mice that died on each day after infection: day 5 [16]: 2 Mouse; Average survival times (Days) [16]: 9.9**** Days; remaining at 12 h, 0.91 mg/mL [17]: 98.3%
